Experimental data: patent US11618747B2, “LXR modulators with bicyclic core moiety” (OrsoBio, Inc., priority 2018, dated 2023)

Assays:
[1] = target: T1, ligand-binding domain (LBD) of LXRβ (Homo sapiens, UniProt P55055, DUP175-175); experiment: LXR Gal4 reporter transient transfection assay (LBD-M2H Gal4β); assay type: cell-based; conditions: HEK293 cells, LXRβ LBD; read-out: LBD-M2H Gal4β (EC50 range)
T1 construct: LXRβ (amino acids 156-461); expressed in transfected cells; host or cells: HEK293
T1 sequence (P55055 with tags, fused parts or gaps DUP175-175 limits assumed): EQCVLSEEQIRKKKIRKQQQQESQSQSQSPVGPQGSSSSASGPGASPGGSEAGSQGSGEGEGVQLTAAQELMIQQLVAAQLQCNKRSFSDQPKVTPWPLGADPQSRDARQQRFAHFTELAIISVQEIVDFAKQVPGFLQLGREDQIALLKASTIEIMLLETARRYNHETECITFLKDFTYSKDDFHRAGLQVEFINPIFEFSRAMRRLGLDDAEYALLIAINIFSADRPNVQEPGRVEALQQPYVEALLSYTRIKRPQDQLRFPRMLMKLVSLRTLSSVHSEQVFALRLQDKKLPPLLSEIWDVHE
Procedure: The tested compounds were usually dissolved, tested and stored as 20 mM stock solutions in DMSO. Since sulfonyl acetic acid derivatives tend to decarboxylate under these conditions, these stock solutions were prepared, tested and stored as 20 mM DMSO stock solutions containing 100 mM trifluoroacetic Acid (5 equivalents). Sulfonyl acetic acid derivatives are shelf stable as solid at rt for long time as reported by Griesbrecht et al. (Synlett 2010:374) or Faucher et al. (J. Med. Chem. 2004; 47:18).
LXR Gal4 Reporter Transient Transfection Assays
LXRα and LXRβ activity status was determined via detection of interaction with coactivator and corepressor proteins in mammalian two-hybrid experiments (M2H). For this, via transient transfection the full length (FL) proteins of LXRα (amino acids 1-447; NP005684; SEQ ID NO:1) or LXRβ-(amino acids 1-461; NP009052; SEQ ID NO:2) or the ligand-binding domains (LBD) of LXRα (amino acids 155-447 SEQ ID NO:3) or LXRβ (amino acids 156-461; SEQ ID NO:4) were expressed from pCMV-AD (Stratagene) as fusions to the transcriptional activation domain of NFkB. As cofactors, domains of either the steroid receptor coactivator 1 (SRC1; amino acids 552-887; SEQ ID NO:5) or of the corepressor NCoR (amino acids 1906-2312; NP006302; SEQ ID NO:6) were expressed as fusions to the DNA binding domain of the yeast transcription factor GAL4 (from pCMV-BD; Stratagene). Interaction was monitored via activation of a coexpressed Firefly Luciferase Reporter gene under control of a promoter containing repetitive GAL4 response elements (vector pFRLuc; Stratagene). Transfection efficiency was controlled via cotransfection of constitutively active pRL-CMV Renila reniformis luciferase reporter (Promega). HEK293 cells were grown in minimum essential medium (MEM) with 2 mM L-glutamine and Earle's balanced salt solution supplemented with 8.3% fetal bovine serum, 0.1 mM non-essential amino acids, 1 mM sodium pyruvate, at 37° C. in 5% CO2. 3.5×10^4 cells/well were plated in 96-well cell culture plates in growth medium supplemented with 8.3% fetal bovine serum for 16-20 h to ˜90% confluency. For transfection, medium was taken off and LXR and cofactor expressing plasmids as well as the reporter plasmids are added in 30 μL OPTIMEM/well including polyethylene-imine (PEI) as vehicle. Typical amounts of plasmids transfected/well: pCMV-AD-LXR (5 ng), pCMV-BD-cofactor (5 ng), pFR-Luc (100 ng), pRL-CMV (0.5 ng). Compound stocks were prepared in DMSO, prediluted in MEM to a total volume of 120 μL, and added 4 h after addition of the transfection mixture (final vehicle concentration not exceeding 0.2%). Cells were incubated for additional 16 h, lysed for 10 min in 1× Passive Lysis Buffer (Promega) and Firefly and Renilla luciferase activities were measured sequentially in the same cell extract using buffers containing D-luciferine and coelenterazine, respectively. Measurements of luminescence were done in a BMG-luminometer.

[2] = target: T2, LXRβ ligand-binding domain (Homo sapiens, UniProt P55055, DUP175-175); experiment: TR-FRETβ activity assay (NCoA3 coactivator peptide recruitment); assay type: biochemical; conditions: TR-FRET, 1 μM 24(S)-25-epoxycholesterol prestimulation; read-out: FRETβ (EC50 range)
T2 construct: amino acids 156-461; NP009052; made in house; host or cells: E. coli
T2 sequence (P55055 with tags, fused parts or gaps DUP175-175 limits assumed): T1 sequence (P55055 with tags, fused parts or gaps DUP175-175 limits assumed)
How it was run: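 Inverse agonism assessed by loss of coactivator recruitment, read as TR-FRET 665/615 nm after 1 h equilibration at 4 °C, in triplicate. Ten-point titration from 50 μM to 0.002 μM against LXRβ LBD (76 nM, GST fusion) prestimulated with 1 μM 24(S)-25-epoxycholesterol, with 400 nM NCoA3 peptide, pH 6.8. Sulfonyl acetic acids kept as 20 mM DMSO stocks with 100 mM TFA.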

full length (FL) LXRβ = target: T3, full length (FL) LXRβ (Homo sapiens, UniProt P55055, DUP175-175); experiment: LXR Gal4 reporter transient transfection assay (FL-M2H Gal4β); assay type: cell-based; conditions: HEK293 cells, full length LXRβ; read-out: FL-M2H Gal4β (EC50 range)
T3 construct: the full length (FL) proteins of LXRα (amino acids 1-447); NP005684; NP009052; expressed in transfected cells; host or cells: HEK293
T3 sequence (P55055 with tags, fused parts or gaps DUP175-175): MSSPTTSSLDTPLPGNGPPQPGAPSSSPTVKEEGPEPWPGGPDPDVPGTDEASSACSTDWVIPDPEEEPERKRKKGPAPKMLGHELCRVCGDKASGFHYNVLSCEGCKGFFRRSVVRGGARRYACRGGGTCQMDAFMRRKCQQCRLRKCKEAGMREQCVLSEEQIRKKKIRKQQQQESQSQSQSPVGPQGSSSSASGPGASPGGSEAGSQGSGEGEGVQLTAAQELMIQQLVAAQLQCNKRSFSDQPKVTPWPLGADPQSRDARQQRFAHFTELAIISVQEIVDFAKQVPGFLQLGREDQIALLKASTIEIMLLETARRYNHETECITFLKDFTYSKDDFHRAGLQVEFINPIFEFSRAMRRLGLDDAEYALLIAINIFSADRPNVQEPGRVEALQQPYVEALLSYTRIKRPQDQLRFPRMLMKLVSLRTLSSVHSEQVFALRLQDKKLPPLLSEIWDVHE
How it was run: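 HEK293 cells were transiently co-transfected with NFkB activation-domain fusions of LXR (full length or LBD) and GAL4 DNA-binding-domain fusions of SRC1 (aa 552-887) or NCoR (aa 1906-2312), plus a GAL4-response-element Firefly luciferase reporter and a Renilla control. Compounds were added 4 h post-transfection, cells incubated 16 h, then dual luciferase read.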

[3] = Short term HFD mouse model: plasma and liver exposure; assay type: in vivo, mice (C57BL/6J); conditions: HFD mice, 4 h after last dose
Procedure: Short Term HFD Mouse Model:
The in vivo transcriptional regulation of several LXR target genes by LXR modulators was assessed in mice.
For this, C57BL/6J were purchased from Elevage Janvier (Rennes, France) at the age of 8 weeks. After an acclimation period of two weeks, animals were preferred on a high fat diet (HFD) (Ssniff Spezialdiäten GmbH, Germany, Surwit EF D12330 mod, Cat. No. E15771-34), with 60 kcal % from fat plus 1% (w/w) extra cholesterol (Sigma-Aldrich, St. Louis, Mo.) for 5 days. Animals were maintained on this diet during treatment with LXR modulators. The test compounds were formulated in 0.5% hydroxypropylmethylcellulose (HPMC) and administered in three doses (from 1.5 to 20 mg/kg each) by oral gavage according to the following schedule: on day one, animals received treatment in the morning and the evening (ca. 17:00), on day two animals received the final treatment in the morning after a 4 h fast and were sacrificed 4 h thereafter. Animal work was conducted according to the national guidelines for animal care in Germany.
Upon termination, liver was collected, dipped in ice cold PBS for 30 seconds and cut into appropriate pieces. Pieces were snap frozen in liquid nitrogen and stored at −80° C. For the clinical chemistry analysis from plasma, alanine aminotransferase (ALT, IU/mL), cholesterol (CHOL, mg/dL) and triglycerides (TG, mg/dL) were determined using a fully-automated bench top analyzer (Respons®910, DiaSys Greiner GmbH, Flacht, Germany) with system kits provided by the manufacturer.

SMILES | EC50 [1] [nM] | EC50 [2] [nM] | EC50 (full length (FL) LXRβ) [nM] | other results
Cc1ccc(S(=O)(=O)n2c(-c3cccc(C4CC4C(=O)O)c3)c(-c3ccsc3C#N)c3ccccc32)cc1 (racemic) [Example 30, rac-(1R,2R)-2-(3-(3-(2-Cyanothiophen-3-yl)-1-tosyl-1H-indol-2-yl)phenyl)cyclopropane-1-carboxylic Acid] | < 100 | 100 to 1000 |  | 
Cc1cccc(S(=O)(=O)n2c(-c3cccc(N4CC(C(=O)O)C4)c3)c(-c3ccsc3C#N)c3cc(F)ccc32)c1 [3/8] | < 100 | 1000 to 10000 |  | 
N#Cc1sccc1-c1c(-c2cccc(-c3ccc(C(=O)O)cc3Cl)c2)n(S(=O)(=O)c2ccc(C(F)F)cc2)c2ccc(F)cc12 [11/17] |  | < 100 | < 100 | liver exposure 4 h ([3]; three oral doses of 20 mg/kg): D (>10 μM); liver/plasma ratio 4 h ([3]; three oral doses of 20 mg/kg): C (30 to ≤100); plasma exposure 4 h ([3]; three oral doses of 20 mg/kg): C (C: 100 nM to <300 nM)
N#Cc1cccc(C#N)c1-c1c(-c2cccc([C@H]3CC[C@H](C(=O)O)CC3)c2)n(S(=O)(=O)c2ccc(C(F)F)cc2)c2ccc(F)cc12 [11/62] |  | 100 to 1000 | < 100 | liver exposure 4 h ([3]; three oral doses of 10 mg/kg): C (1 μM to ≤10 μM); liver/plasma ratio 4 h ([3]; three oral doses of 10 mg/kg): B (5 to ≤30); plasma exposure 4 h ([3]; three oral doses of 10 mg/kg): C (C: 100 nM to <300 nM)
COc1ccc(S(=O)(=O)n2c(-c3ccccc3)c(-c3cc4ccccc4nc3C#N)c3ccccc32)cc1 [20/17] | 100 to 1000 |  |  | 
